These results are taken from patent publication US20240150293A1, “SPIROCYCLOHEXANE DERIVATIVES, PHARMACEUTICAL COMPOSITIONS CONTAINING THEM AND THEIR USES AS ANTI-APOPTOTIC INHIBITORS” (LES LABORATOIRES SERVIER, priority 2021, published 2024).

For one assay, the target named is Mcl-1 protein (UniProtKB Q07820) (Homo sapiens (Human), UniProt Q07820). Put plainly: Inhibition of Mcl-1 by the fluorescence polarisation assay (Example A, Method A). The format is binding. To be noted: fluorescence polarization assay. The procedure, abridged:
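Protein (5 nM) and fluorescein-tagged peptide tracer (1 nM) incubated with 11-point compound series for 2 h at room temperature in HEPES/NaCl/Tween 20 buffer, pH 7.4, 5% DMSO. Displacement read as decrease in polarisation; IC50 fitted by 4-parameter logistic, converted to Ki (cKi or eKi).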
For orientation: Polarisation of emitted light reports the rotation of a fluorescent probe.

Assay [1] relates to H929 multiple myeloma tumor line. Put plainly: In vitro cytotoxicity, MTT assay (Example B, Method A). To be noted: Homo sapiens, NCI-H929, 48 h, H929 cells, 48 hours exposure, read-out: C50. The format is cell-based. The protocol: The cytotoxicity studies were carried out on the H929 multiple myeloma tumor line.
The cells are distributed onto microplates and exposed to the test compounds for 48 hours. The cell viability is then quantified by a colorimetric assay, the Microculture Tetrazolium Assay (Carmichael et al, Cancer Res. 1987, 47, 939-942).
The results are expressed in C50 which means concentration corresponding to […] of effect/inhibition.
Background: Tetrazolium assays rely on reduction of a dye to a coloured formazan, in cell work by metabolically active cells.

Chain of Mcl-1 protein (Q07820 whole entry): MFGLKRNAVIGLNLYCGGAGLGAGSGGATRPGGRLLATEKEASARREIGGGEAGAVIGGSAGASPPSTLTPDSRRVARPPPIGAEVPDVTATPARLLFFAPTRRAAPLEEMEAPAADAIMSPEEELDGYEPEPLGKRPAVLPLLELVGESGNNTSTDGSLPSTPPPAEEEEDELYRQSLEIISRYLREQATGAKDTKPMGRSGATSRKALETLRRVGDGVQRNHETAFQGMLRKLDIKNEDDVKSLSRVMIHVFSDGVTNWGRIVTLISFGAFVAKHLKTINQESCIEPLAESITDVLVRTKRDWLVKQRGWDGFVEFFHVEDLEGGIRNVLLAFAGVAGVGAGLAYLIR

The Ki is a dissociation constant, usually derived from enzyme kinetics or from competition with a known ligand. For `O=C(O)[C@]1(Nc2cccc(Cl)c2)CC[C@@]2(CC1)c1ccccc1C[C@@H]2C[C@@H](COc1cccnc1)c1ccccc1` [Example 548, (1r,2′S,4S)-4-(3-chloroanilino)-2′-{(2R)-2-phenyl-3-[(pyridin-3-yl)oxy]propyl}-2′,3′-dihydrospiro[cyclohexane-1,1′-indene]-4-carboxylic acid], at Mcl-1 protein, the Ki stood at 995 nM. Moreover, the IC50 in assay [1] amounted to 30000 nM.
Taken in the same sequence, the figures for `O=C(O)[C@]1(Nc2cccc(Cl)c2)CC[C@@]2(CC1)c1ccccc1C[C@H]2C[C@@H](COc1cccnc1)c1ccccc1` [Example 549, (1r,2′R,4R)-4-(3-chloroanilino)-2′-{(2R)-2-phenyl-3-[(pyridin-3-yl)oxy]propyl}-2′,3′-dihydrospiro[cyclohexane-1,1′-indene]-4-carboxylic acid] were 9480 nM and 17900 nM.
Taken in the same sequence, the figures for `O=C(O)[C@]1(Nc2cccc(Cl)c2)CC[C@@]2(CC1)c1ccccc1C[C@H]2C[C@H](COc1cccnc1)c1ccccc1` [Example 550, (1r,2′R,4R)-4-(3-chloroanilino)-2′-{(2S)-2-phenyl-3-[(pyridin-3-yl)oxy]propyl}-2′,3′-dihydrospiro[cyclohexane-1,1′-indene]-4-carboxylic acid] were 5280 nM and 30000 nM.
Taken in the same sequence, the figures for `O=C(O)[C@]1(Nc2cccc(Cl)c2)CC[C@@]2(CC1)c1ccccc1C[C@@H]2C[C@H](COc1cccnc1)c1ccccc1` [Example 551, (1r,2′S,4S)-4-(3-chloroanilino)-2′-{(2S)-2-phenyl-3-[(pyridin-3-yl)oxy]propyl}-2′,3′-dihydrospiro[cyclohexane-1,1′-indene]-4-carboxylic acid] were 607 nM and 15900 nM.
With `O=C(O)[C@]1(Nc2cccc(Cl)c2)CC[C@@]2(CC1)c1ccccc1C[C@@H]2C[C@@H](COc1ccncc1)c1ccccc1` [Example 552, (1r,2′S,4S)-4-(3-chloroanilino)-2′-{(2R)-2-phenyl-3-[(pyridin-4-yl)oxy]propyl}-2′,3′-dihydrospiro[cyclohexane-1,1′-indene]-4-carboxylic acid], on Mcl-1 protein, the Ki is 110 nM. Also, in assay [1], the IC50 worked out at 3380 nM.
Taken in the same sequence, the figures for `O=C(O)[C@]1(Nc2cccc(Cl)c2)CC[C@@]2(CC1)c1ccccc1C[C@H]2C[C@@H](COc1ccncc1)c1ccccc1` [Example 553, (1r,2′R,4R)-4-(3-chloroanilino)-2′-{(2R)-2-phenyl-3-[(pyridin-4-yl)oxy]propyl}-2′,3′-dihydrospiro[cyclohexane-1,1′-indene]-4-carboxylic acid] were 5640 nM and 17500 nM.
Taken in the same sequence, the figures for `O=C(O)[C@]1(Nc2cccc(Cl)c2)CC[C@@]2(CC1)c1ccccc1C[C@H]2C[C@H](COc1ccncc1)c1ccccc1` [Example 554, (1r,2′R,4R)-4-(3-chloroanilino)-2′-{(2S)-2-phenyl-3-[(pyridin-4-yl)oxy]propyl}-2′,3′-dihydrospiro[cyclohexane-1,1′-indene]-4-carboxylic acid] were 323 nM and 30000 nM.
Taken in the same sequence, the figures for `O=C(O)[C@]1(Nc2cccc(Cl)c2)CC[C@@]2(CC1)c1ccccc1C[C@@H]2C[C@@H](COc1ccccc1)c1ccccc1` [Example 556, (1r,2′S,4S)-4-(3-chloroanilino)-2′-[(2R)-3-phenoxy-2-phenylpropyl]-2′,3′-dihydrospiro[cyclohexane-1,1′-indene]-4-carboxylic acid] were 7190 nM and 19300 nM.
As for `O=C(O)[C@]1(Nc2cccc(Cl)c2)CC[C@@]2(CC1)c1ccccc1C[C@H]2C[C@H](COc1ccccc1)c1ccccc1` [Example 557, (1r,2′R,4R)-4-(3-chloroanilino)-2′-[(2S)-3-phenoxy-2-phenylpropyl]-2′,3′-dihydrospiro[cyclohexane-1,1′-indene]-4-carboxylic acid], at Mcl-1 protein, the Ki was determined as 1270 nM. Besides, the IC50 in assay [1] was found to be 20100 nM.
Taken in the same sequence, the figures for `C[C@@H](COc1cccnc1)C[C@H]1Cc2ccccc2[C@]12CC[C@@](Nc1cccc(Cl)c1)(C(=O)O)CC2` [Example 568, (1r,2′S,4S)-4-(3-chloroanilino)-2′-{(2R)-2-methyl-3-[(pyridin-3-yl)oxy]propyl}-2′,3′-dihydrospiro[cyclohexane-1,1′-indene]-4-carboxylic acid] were 438 nM and 18300 nM.
Taken in the same sequence, the figures for `CNc1cccc(OC[C@H](C)C[C@H]2Cc3ccccc3[C@]23CC[C@@](Nc2cccc(Cl)c2)(C(=O)O)CC3)c1` [Example 569, (1r,2′S,4S)-4-(3-chloroanilino)-2′-{(2R)-2-methyl-3-[3-(methylamino)phenoxy]propyl}-2′,3′-dihydrospiro[cyclohexane-1,1′-indene]-4-carboxylic acid] were 74.3 nM and 1720 nM.
Taken in the same sequence, the figures for `C[C@@H](COc1ccncc1C1CC1(C)C)C[C@H]1Cc2ccccc2[C@]12CC[C@@](Nc1cccc(Cl)c1)(C(=O)O)CC2` (stereo partly drawn) [Example 580, (1r,2′S,4S)-4-(3-chloroanilino)-2′-[(2R)-3-{[3-(2,2-dimethylcyclopropyl)pyridin-4-yl]oxy}-2-methylpropyl]-2′,3′-dihydrospiro[cyclohexane-1,1′-indene]-4-carboxylic acid] were 92.7 nM and 5120 nM.
For the molecule `C[C@@H](COc1ccncc1)C[C@H]1Cc2ccccc2[C@]12CC[C@@](Nc1cccc(Cl)c1)(C(=O)O)CC2` [Example 582, (1r,2′S,4S)-4-(3-chloroanilino)-2′-{(2R)-2-methyl-3-[(pyridin-4-yl)oxy]propyl}-2′,3′-dihydrospiro[cyclohexane-1,1′-indene]-4-carboxylic acid], on Mcl-1 protein, the Ki came to 51.9 nM. For the same molecule, the IC50 in assay [1] is 2550 nM.
On to `CNc1cc(OC[C@H](C)C[C@H]2Cc3ccccc3[C@]23CC[C@@](Nc2cccc(Cl)c2)(C(=O)O)CC3)ccn1` [Example 585, (1r,2′S,4S)-4-(3-chloroanilino)-2′-[(2R)-2-methyl-3-{[2-(methylamino)pyridin-4-yl]oxy}propyl]-2′,3′-dihydrospiro[cyclohexane-1,1′-indene]-4-carboxylic acid], for which the Ki on Mcl-1 protein was determined as 36 nM. Besides, the IC50 in assay [1] came out at 2610 nM.
Taken in the same sequence, the figures for `C[C@@H](COc1ccnc2ccsc12)C[C@@H]1Cc2ccccc2[C@]12CC[C@@](Nc1cccc(Cl)c1)(C(=O)O)CC2` [Example 590, (1r,2′R,4R)-4-(3-chloroanilino)-2′-{(2R)-2-methyl-3-[(thieno[3,2-b]pyridin-7-yl)oxy]propyl}-2′,3′-dihydrospiro[cyclohexane-1,1′-indene]-4-carboxylic acid] were 19.2 nM and 1170 nM.
Taken in the same sequence, the figures for `C[C@@H](COc1ncnc2c1CCC2)CC1Cc2ccccc2[C@]12CC[C@@](Nc1cccc(Cl)c1)(C(=O)O)CC2` (stereo partly drawn) [Example 593, (1r,4R)-4-(3-chloroanilino)-2′-{(2R)-3-[(6,7-dihydro-5H-cyclopenta[d]pyrimidin-4-yl)oxy]-2-methylpropyl}-2′,3′-dihydrospiro[cyclohexane-1,1′-indene]-4-carboxylic acid] were 14.5 nM and 2010 nM.
